From patent publication US12016852B2, “Pyrrolidine glycosidase inhibitors” (Asceneuron SA, priority 2018, dated 2024)

Each compound was assayed against T1, Human O-GlcNAcase (His-Tagged hOGA) (Homo sapiens, UniProt O60502) (assay: Human O-GlcNAcase enzyme inhibition assay). Conditions: 20 nM His-Tagged hOGA, 10 μM FL-GlcNAc, McIlvaine's Buffer pH 6.5, 60 min at room temperature, fluorescence; read-out: OGA IC50.
T1 sequence (O60502 1-916): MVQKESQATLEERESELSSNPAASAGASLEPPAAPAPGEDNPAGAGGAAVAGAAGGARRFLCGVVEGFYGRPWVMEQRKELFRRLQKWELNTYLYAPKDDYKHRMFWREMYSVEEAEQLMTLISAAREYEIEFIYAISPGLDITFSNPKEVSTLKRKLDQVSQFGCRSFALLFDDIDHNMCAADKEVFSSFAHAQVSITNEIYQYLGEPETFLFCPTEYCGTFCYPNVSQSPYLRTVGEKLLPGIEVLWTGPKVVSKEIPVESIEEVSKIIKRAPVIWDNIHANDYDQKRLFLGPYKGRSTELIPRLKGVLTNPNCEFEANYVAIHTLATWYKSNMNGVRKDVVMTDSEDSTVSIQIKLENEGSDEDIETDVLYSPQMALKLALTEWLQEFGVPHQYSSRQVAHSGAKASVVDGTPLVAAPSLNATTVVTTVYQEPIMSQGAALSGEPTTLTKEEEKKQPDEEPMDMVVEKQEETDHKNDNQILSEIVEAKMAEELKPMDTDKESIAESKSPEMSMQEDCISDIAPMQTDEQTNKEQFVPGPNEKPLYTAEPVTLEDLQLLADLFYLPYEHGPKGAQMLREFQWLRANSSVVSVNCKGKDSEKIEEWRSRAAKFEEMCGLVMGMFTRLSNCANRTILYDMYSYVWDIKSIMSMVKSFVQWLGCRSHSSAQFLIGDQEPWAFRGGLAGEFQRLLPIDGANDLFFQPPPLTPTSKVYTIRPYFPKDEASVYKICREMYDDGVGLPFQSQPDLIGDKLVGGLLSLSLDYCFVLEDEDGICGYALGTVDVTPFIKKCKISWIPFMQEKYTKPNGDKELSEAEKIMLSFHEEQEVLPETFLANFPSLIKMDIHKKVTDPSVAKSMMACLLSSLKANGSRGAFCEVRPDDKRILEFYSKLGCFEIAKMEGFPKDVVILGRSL
Type: biochemical
Protocol: Example B01: Human O-GlcNAcase Enzyme Inhibition Assay
5 μl of the appropriate concentration of a solution of inhibitor in Mcllvaine's Buffer (pH 6.5) in 2% DMSO (for a dose response curve calculation) is added into each well of a 384-well plate (Greiner, 781900). Then, 20 nM of His-Tagged hOGA and 10 μM of FL-GlcNAc (Fluorescein mono-beta-D-(2-deoxy-2-N-acetyl) glucopyranoside; Marker Gene Technologies Inc, M1485) were added to the 384-well plate for a final volume of 20 μl. After incubation for 60 min at room temperature, the reaction was terminated by the addition of 10 μL of stop buffer (200 mM glycine, pH 10.75). The level of fluorescence (λexc 485 nm; (λemm 520 nm) was read on a PHERAstar machine. The amount of fluorescence measured was plotted against the concentration of inhibitor to produce a sigmoidal dose response curve to calculate an IC50. All individual data was corrected by subtraction of the background (Thiamet 3 uM=100% inhibition) whilst 0.5% DMSO was considered as the control value (no inhibition).

IC50 | Structure (SMILES)
1000 to 10000 nM | Cc1cc(CN2CCCC2c2ccc3c(c2)OCCO3)ccc1-c1ccncc1 (racemic) [Example 147]
200 to 1000 nM | Cc1cc(-c2cccnc2C)ccc1CN1CCCC1c1ccc2c(c1)OCCO2 (racemic) [Example 56, 3-(4-((2-(2,3-dihydrobenzo[b] [1,4]dioxin-6-yl)pyrrolidin-1-yl)methyl)-3-methylphenyl)-2-methylpyridine]
50 to 200 nM | CS(=O)(=O)c1cncc(-c2ccc(CN3CCCC3c3ccc4c(c3)OCCO4)cc2)c1 (racemic) [Example 63, 3-(4-((2-(2,3-dihydrobenzo[b] [1,4]dioxin-6-yl)pyrrolidin-1-yl)methyl)phenyl)-5-(methylsulfonyl)pyridine]
50 to 200 nM | c1cnnc(-c2ccc(CN3CCCC3c3ccc4c(c3)OCCO4)cc2)c1 (racemic) [Example 144]
50 to 200 nM | N#Cc1cnc(-c2ccc(CN3CCCC3c3ccc4c(c3)OCCO4)cc2)s1 (racemic) [Example 60, 2-(4-((2-(2,3-dihydrobenzo[b] [1,4]dioxin-6-yl)pyrrolidin-1-yl)methyl)phenyl)thiazole-5-carbonitrile]
200 to 1000 nM | CS(=O)(=O)c1ccc(CN2CCCC2c2ccc3c(c2)OCCO3)cc1 (single isomer, unassigned) [Example 13, (S)-2-(2,3-dihydrobenzo[b] [1,4]dioxin-6-yl)-1-(4-(methylsulfonyl)benzyl) pyrrolidine or (R)-2-(2,3-dihydrobenzo[b] [1,4]dioxin-6-yl)-1-(4-(methylsulfonyl)benzyl) pyrrolidine]
50 to 200 nM | CS(=O)(=O)c1cnc(-c2ccc(CN3CCCC3c3ccc4c(c3)OCCO4)cc2)nc1 (racemic) [Example 149]
50 to 200 nM | c1cnc(-c2ccc(CN3CCCC3c3ccc4c(c3)OCCO4)cc2)nc1 (racemic) [Example 69, 2-(4-((2-(2,3-dihydrobenzo[b] [1,4]dioxin-6-yl)pyrrolidin-1-yl)methyl)phenyl) pyrimidine]
200 to 1000 nM | CS(=O)(=O)c1ccc(CN2CCCC2c2ccc3c(c2)OCCO3)cc1 (racemic) [Example 8, 2-(2,3-dihydrobenzo[b] [1,4]dioxin-6-yl)-1-(4-(methylsulfonyl)benzyl) pyrrolidine]
1000 to 10000 nM | Cc1noc(C)c1-c1ccc(CN2CCCC2c2ccc3c(c2)OCCO3)cc1 (racemic) [Example 54, 4-(4-((2-(2,3-dihydrobenzo[b] [1,4]dioxin-6-yl)pyrrolidin-1-yl)methyl)phenyl)-3,5-dimethylisoxazole]
200 to 1000 nM | Cc1cc(C(=O)Nc2ccc(CN3CCCC3c3ccc4c(c3)OCCO4)cc2)cc(C)n1 (racemic) [Example 156]
50 to 200 nM | c1cnc(-c2ccc(CN3CCCC3c3ccc4c(c3)OCCO4)cc2)cn1 (racemic) [Example 64, 2-(4-((2-(2,3-dihydrobenzo[b] [1,4]dioxin-6-yl)pyrrolidin-1-yl)methyl)phenyl)pyrazine]

The remaining lines, values behind:

Structure (SMILES) | IC50
Cc1cc(C(=O)Nc2ccc(CN3CCCC3c3ccc4c(c3)OCCO4)cc2)ccn1 (racemic) [Example 158] | 200 to 1000 nM
Cc1cc(-c2cccnc2)ccc1CN1CCCC1c1ccc2c(c1)OCCO2 (single isomer, unassigned) [Example 33, (S)-3-(4-((2-(2,3-dihydrobenzo[b] [1,4]dioxin-6-yl)pyrrolidin-1-ylmethyl)-3-methylphenyl)pyridine or (R)-3-(4-((2-(2,3-dihydrobenzo[b] [1,4]dioxin-6-yl)pyrrolidin-1-yl)methyl)-3-methylphenyl)pyridine] | 50 to 200 nM
c1cc(N2CCOCC2)ccc1CN1CCCC1c1ccc2c(c1)OCC2 (racemic) [Example 24, 4-(4-((2-(2,3-dihydrobenzofuran-6-yl)pyrrolidin-1-yl)methyl)phenyl)morpholine] | 200 to 1000 nM
Fc1cc(-c2ccccn2)ccc1CN1CCCC1c1ccc2c(c1)OCCO2 (racemic) [Example 41, 2-(4-((2-(2,3-dihydrobenzo[b] [1,4]dioxin-6-yl)pyrrolidin-1-yl)methyl)-3-fluorophenyl)pyridine] | 200 to 1000 nM
N#Cc1ccc(Oc2ccc(CN3CCCC3c3ccc4c(c3)OCCO4)cc2)cc1 (racemic) [Example 154] | 200 to 1000 nM
Cc1cc(-c2ccncc2C)ccc1CN1CCCC1c1ccc2c(c1)OCCO2 (racemic) [Example 57, 4-(4-((2-(2,3-dihydrobenzo[b] [1,4]dioxin-6-yl)pyrrolidin-1-yl)methyl)-3-methylphenyl)-3-methylpyridine] | 200 to 1000 nM
Cc1cc(-c2cccnc2)ccc1CN1CCCC1c1ccc2c(c1)OCCO2 (racemic) [Example 38, 3-(4-((2-(2,3-dihydrobenzo[b] [1,4]dioxin-6-yl)pyrrolidin-1-yl)methyl)-3-methylphenyl)pyridine] | 50 to 200 nM
c1ccc2ncc(CN3CCCC3c3ccc4c(c3)OCCO4)cc2c1 (racemic) [Example 26, 3-((2-(2,3-dihydrobenzo[b] [1,4]dioxin-6-yl)pyrrolidin-1-yl)methyl)quinoline] | 200 to 1000 nM
Cn1cc(-c2ccc(CN3CCCC3c3ccc4c(c3)OCCO4)cn2)cn1 (single isomer, unassigned) [Example 7, (S)-5-((2-(2,3-dihydrobenzo[b] [1,4]dioxin-6-yl)pyrrolidin-1-yl)methyl)-2-(1-methyl-1H-pyrazol-4-yl)pyridine or (R)-5-((2-(2,3-dihydrobenzo[b] [1,4]dioxin-6-yl)pyrrolidin-1-yl)methyl)-2-(1-methyl-1H-pyrazol-4-yl)pyridine] | 50 to 200 nM
c1cc(N2CCSCC2)ccc1CN1CCCC1c1ccc2c(c1)OCCO2 (racemic) [Example 28, 4-(4-((2-(2,3-dihydrobenzo[b] [1,4]dioxin-6-yl)pyrrolidin-1-yl)methyl) Phenyl) thiomorpholine] | 200 to 1000 nM
Cc1ccc(-c2nc(CN3CCCC3c3ccc4c(c3)OCO4)co2)cc1 (single isomer, unassigned) [Example 2, (S)-4-((2-(benzo[d] [1,3]dioxol-5-yl)pyrrolidin-1-yl)methyl)-2-(D-tolyl)oxazole or (R)-4-((2-(benzo[d] [1,3]dioxol-5-yl)pyrrolidin-1-yl)methyl)-2-(D-tolyl)oxazole] | 1000 to 10000 nM
CC(=O)N1CCN(c2ccc(CN3CCCC3c3ccc4c(c3)OCCO4)cc2)CC1 (racemic) [Example 37, 1-(4-(4-((2-(2,3-dihydrobenzo[b] [1,4]dioxin-6-yl)pyrrolidin-1-yl)methyl)phenyl)piperazin-1-yl)ethan-1-one] | 200 to 1000 nM
c1ccc(-c2ccc(CN3CCCC3c3ccc4c(c3)OCC4)cc2)cc1 (racemic) [Example 22, 1-([1,1′-biphenyl]-4-ylmethyl)-2-(2,3-dihydrobenzofuran-6-yl)pyrrolidine] | 200 to 1000 nM
CS(=O)(=O)c1ccc(-c2ccc(CN3CCCC3c3ccc4c(c3)OCCO4)nc2)cc1 (racemic) [Example 14, 2-((2-(2,3-dihydrobenzo[b] [1,4]dioxin-6-yl)pyrrolidin-1-yl)methyl)-5-(4-(methylsulfonyl)phenyl)pyridine] | 200 to 1000 nM
Cn1cc(-c2ccc(CN3CCCC3c3ccc4c(c3)OCC4)cc2)cn1 (racemic) [Example 11, 4-(4-((2-(2,3-dihydrobenzofuran-6-yl)pyrrolidin-1-yl)methyl)phenyl)-1-methyl-1H-pyrazole] | < 50 nM
Fc1cc(-c2cccnc2)ccc1CN1CCCC1c1ccc2c(c1)OCCO2 (racemic) [Example 32, 3-(4-((2-(2,3-dihydrobenzo[b] [1,4]dioxin-6-yl)pyrrolidin-1-yl)methyl)-3-fluorophenyl)pyridine] | 50 to 200 nM
CC(=O)Nc1ncc(CN2CCCC2c2ccc3c(c2)OCCO3)s1 (racemic) [Example 50, N-(5-((2-(2,3-dihydrobenzo[b] [1,4]dioxin-6-yl)pyrrolidin-1-yl)methyl)thiazol-2-yl)acetamide] | 200 to 1000 nM
Cc1cc(-c2cnn(C)c2)ccc1CN1CCCC1c1ccc2c(c1)OCCO2 (racemic) [Example 45, 4-(4-((2-(2,3-dihydrobenzo[b] [1,4]dioxin-6-yl)pyrrolidin-1-yl)methyl)-3-methylphenyl)-1-methyl-1H-pyrazole] | 50 to 200 nM
